Read-outs that look alike come from different tables or passages of the source.
Key:
Format in all cases: biochemical
JAK1 = JAK1 (Homo sapiens (Human), UniProt P23458); assay: Enzyme assay (Assay Example^a 1), JAK1; conditions: ATP 100 μM
JAK2 = JAK2 (Homo sapiens (Human), UniProt O60674); assay: Enzyme assay (Assay Example^a 1), JAK2; conditions: ATP 100 μM
JAK3 = JAK3 (Homo sapiens (Human), UniProt P52333); assay: Enzyme assay (Assay Example^a 1), JAK3
Tyk2 = Tyk2 (Homo sapiens (Human), UniProt P29597); assay: Enzyme assay (Assay Example^a 1), Tyk2; conditions: ATP 100 μM
Tyk2, sequence (P29597 whole entry): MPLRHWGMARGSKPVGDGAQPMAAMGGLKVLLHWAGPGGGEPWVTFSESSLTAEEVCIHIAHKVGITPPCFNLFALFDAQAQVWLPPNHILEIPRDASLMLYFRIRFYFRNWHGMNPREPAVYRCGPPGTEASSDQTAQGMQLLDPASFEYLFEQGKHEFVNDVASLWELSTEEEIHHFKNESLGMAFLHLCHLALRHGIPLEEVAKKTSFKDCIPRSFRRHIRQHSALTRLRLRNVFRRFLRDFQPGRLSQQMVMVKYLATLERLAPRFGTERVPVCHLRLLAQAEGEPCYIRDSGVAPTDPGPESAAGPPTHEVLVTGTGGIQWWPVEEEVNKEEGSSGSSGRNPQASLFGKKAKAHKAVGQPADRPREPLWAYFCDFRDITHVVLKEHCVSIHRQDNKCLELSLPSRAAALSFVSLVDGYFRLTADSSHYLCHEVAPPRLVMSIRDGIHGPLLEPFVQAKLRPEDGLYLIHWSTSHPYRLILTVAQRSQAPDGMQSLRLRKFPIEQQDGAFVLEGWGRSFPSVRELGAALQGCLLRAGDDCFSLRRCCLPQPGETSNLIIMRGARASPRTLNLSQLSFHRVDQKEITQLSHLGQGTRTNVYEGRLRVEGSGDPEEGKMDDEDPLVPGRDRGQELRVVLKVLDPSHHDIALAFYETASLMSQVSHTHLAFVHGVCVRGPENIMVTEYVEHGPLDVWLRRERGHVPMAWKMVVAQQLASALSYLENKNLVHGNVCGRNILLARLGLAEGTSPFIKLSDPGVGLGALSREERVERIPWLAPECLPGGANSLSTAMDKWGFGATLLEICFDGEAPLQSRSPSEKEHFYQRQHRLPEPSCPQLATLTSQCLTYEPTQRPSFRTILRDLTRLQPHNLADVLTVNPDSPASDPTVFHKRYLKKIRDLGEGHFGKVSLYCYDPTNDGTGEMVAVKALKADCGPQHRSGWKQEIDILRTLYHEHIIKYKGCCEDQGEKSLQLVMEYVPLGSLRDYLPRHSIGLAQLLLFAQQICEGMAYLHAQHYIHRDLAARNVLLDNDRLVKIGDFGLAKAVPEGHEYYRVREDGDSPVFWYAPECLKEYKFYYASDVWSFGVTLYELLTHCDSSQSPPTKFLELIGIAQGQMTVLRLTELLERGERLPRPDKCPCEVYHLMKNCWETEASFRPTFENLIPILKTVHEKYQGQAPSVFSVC

JAK3, sequence (P52333 whole entry): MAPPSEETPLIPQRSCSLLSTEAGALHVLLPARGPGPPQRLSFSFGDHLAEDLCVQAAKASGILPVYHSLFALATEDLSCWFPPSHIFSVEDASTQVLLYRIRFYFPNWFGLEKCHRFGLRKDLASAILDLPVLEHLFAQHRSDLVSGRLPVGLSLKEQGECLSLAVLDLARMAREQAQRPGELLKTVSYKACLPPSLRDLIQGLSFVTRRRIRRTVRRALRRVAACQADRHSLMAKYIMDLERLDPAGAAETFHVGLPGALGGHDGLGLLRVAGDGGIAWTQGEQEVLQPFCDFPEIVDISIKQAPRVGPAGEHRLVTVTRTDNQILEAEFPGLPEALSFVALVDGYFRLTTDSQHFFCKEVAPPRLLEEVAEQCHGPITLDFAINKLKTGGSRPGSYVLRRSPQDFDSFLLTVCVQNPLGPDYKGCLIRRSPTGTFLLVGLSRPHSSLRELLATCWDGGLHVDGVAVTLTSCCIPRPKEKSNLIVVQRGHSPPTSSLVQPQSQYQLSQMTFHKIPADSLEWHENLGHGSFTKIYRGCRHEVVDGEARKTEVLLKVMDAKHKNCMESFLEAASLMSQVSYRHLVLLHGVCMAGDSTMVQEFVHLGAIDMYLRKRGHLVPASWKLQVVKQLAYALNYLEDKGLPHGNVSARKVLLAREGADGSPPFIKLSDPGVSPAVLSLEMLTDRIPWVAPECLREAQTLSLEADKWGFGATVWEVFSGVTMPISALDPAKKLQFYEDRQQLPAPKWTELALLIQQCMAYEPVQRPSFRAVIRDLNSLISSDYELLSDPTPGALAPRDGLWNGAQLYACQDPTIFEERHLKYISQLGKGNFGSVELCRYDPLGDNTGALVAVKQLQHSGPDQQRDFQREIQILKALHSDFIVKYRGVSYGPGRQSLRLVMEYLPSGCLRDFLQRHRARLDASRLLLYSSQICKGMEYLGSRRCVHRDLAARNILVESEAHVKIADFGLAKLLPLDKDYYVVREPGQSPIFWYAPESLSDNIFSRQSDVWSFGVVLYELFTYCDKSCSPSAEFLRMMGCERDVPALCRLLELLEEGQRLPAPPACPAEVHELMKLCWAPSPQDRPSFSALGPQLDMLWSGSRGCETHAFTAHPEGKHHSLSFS

Row | Compound | IC50 (JAK1) [µM] | IC50 (JAK2) [µM] | IC50 (JAK3; ATP 100 μM) [µM] | IC50 (Tyk2) [µM] | IC50 (JAK1; Table^a 154) [µM] | IC50 (JAK2; Table^a 154) [µM] | IC50 (JAK3; ATP 100 μM, Table^a 154) [µM] | IC50 (Tyk2; Table^a 154) [µM] | IC50 (JAK3) [µM]
1 | N#CCN(CC1CC1)C[C@H]1CC[C@H](c2nnn3cnc4[nH]ccc4c23)CC1 [compound 414, 2-({[trans-4-(7H-pyrrolo[3,2-e][1,2,3]triazolo[1,5-c]pyrimidin-1-yl)cyclohexyl]methyl}(cyclopropylmethyl)amino)acetonitrile] | 0.0095 | 0.13 | > 1 | 0.11 |  |  |  |  | 
2 | FC(F)CNC[C@H]1CC[C@H](c2nnn3cnc4[nH]ccc4c23)CC1 [compound 255, N-{[trans-4-(7H-pyrrolo[3,2-e][1,2,3]triazolo[1,5-c]pyrimidin-1-yl)cyclohexyl]methyl}-2,2-difluoroethanamine] | 0.0025 | 0.015 | 0.24 | 0.14 |  |  |  |  | 
3 | c1ccc(CCCN[C@H]2CC[C@H](c3nnn4cnc5[nH]ccc5c34)CC2)cc1 [136b] |  |  |  |  | 0.016 | 0.29 | > 1 | 0.45 | 
4 | COc1ccc(C(O)(CN[C@H]2CC[C@H](c3nnn4cnc5[nH]ccc5c34)CC2)C(F)(F)F)cn1 (stereo partly drawn) [387b, 3-{[trans-4-(7H-pyrrolo[3,2-e][1,2,3]triazolo[1,5-c]pyrimidin-1-yl)cyclohexyl]amino}-1,1,1-trifluoro-2-(6-methoxypyridin-3-yl)propan-2-ol] | 0.0019 | 0.032 | 0.12 | 0.18 |  |  |  |  | 
5 | O=C(CN[C@H]1CC[C@H](c2nnn3cnc4[nH]ccc4c23)CC1)NCC(F)(F)F [384b, 2-{[trans-4-(7H-pyrrolo[3,2-e][1,2,3]triazolo[1,5-c]pyrimidin-1-yl)cyclohexyl]amino}-N-(2,2,2-trifluoroethyl)acetamide] | 0.022 | 0.08 | > 1 | > 1 |  |  |  |  | 
6 | OC(CNC[C@H]1CC[C@H](c2nnn3cnc4[nH]ccc4c23)CC1)C(F)(F)F (stereo partly drawn) [compound 343, 3-({[trans-4-(7H-pyrrolo[3,2-e][1,2,3]triazolo[1,5-c]pyrimidin-1-yl)cyclohexyl]methyl}amino)-1,1,1-trifluoropropan-2-ol] | 0.01 | 0.063 | 0.33 | 0.44 |  |  |  |  | 
7 | c1cc2c(ncn3nnc([C@H]4CC[C@H](CN5CCSC5)CC4)c23)[nH]1 [compound 254, 3-{[trans-4-(7H-pyrrolo[3,2-e][1,2,3]triazolo[1,5-c]pyrimidin-1-yl)cyclohexyl]methyl}thiazolidine] | 0.0071 | 0.024 | 0.53 | 0.16 |  |  |  |  | 
8 | O=C(CC(F)(F)F)N1CCCC(c2nnn3cnc4[nH]ccc4c23)C1 (racemic) [compound 17] |  |  |  |  | 0.029 | 0.076 | 2.1 | 0.57 | 
9 | CS(=O)(=O)NC[C@H]1CC[C@H](c2nnn3cnc4[nH]ccc4c23)CC1 [compound 427, N-{[trans-4-(7H-Pyrrolo[3,2-e][1,2,3]triazolo[1,5-c]pyrimidin-1-yl)cyclohexyl]methyl}methanesulfonamide] | 0.00016 | 0.0012 | 0.03 | 0.016 |  |  |  |  | 
10 | N#CCc1ccc(NC[C@H]2CC[C@H](c3nnn4cnc5[nH]ccc5c34)CC2)cc1 [compound 264, 2-[4-({[trans-4-(7H-pyrrolo[3,2-e][1,2,3]triazolo[1,5-c]pyrimidin-1-yl)cyclohexyl]methyl}amino)phenyl]acetonitrile] | 0.011 | 0.032 | > 1 | > 1 |  |  |  |  | 
11 | Clc1ccc(CCNC[C@H]2CC[C@H](c3nnn4cnc5[nH]ccc5c34)CC2)cc1 [compound 178, N-{[trans-4-(7H-pyrrolo[3,2-e][1,2,3]triazolo[1,5-c]pyrimidin-1-yl)cyclohexyl]methyl}-2-(4-chlorophenyl)ethanamine] |  |  |  |  | 0.0026 | 0.024 | 0.17 | 0.053 | 
12 | FC1CN(C[C@H]2CC[C@H](c3nnn4cnc5[nH]ccc5c34)CC2)C1 [compound 338, 1-{trans-4-[(3-fluoroazetidin-1-yl)methyl]cyclohexyl}-7H-pyrrolo[3,2-e][1,2,3]triazolo[1,5-c]pyrimidine] | 0.0069 | 0.06 | 0.48 | 0.59 |  |  |  |  | 
13 | c1ccc(CN[C@H]2CC[C@@H](c3nnn4cnc5[nH]ccc5c34)CC2)cc1 [194a, cis-N-benzyl-4-(7H-pyrrolo[3,2-e][1,2,3]triazolo[1,5-c]pyrimidin-1-yl)cyclohexanamine] |  |  |  |  | 0.032 | 0.74 | > 1 | 0.33 | 
14 | FC(F)(F)COC1CN(C[C@H]2CC[C@H](c3nnn4cnc5[nH]ccc5c34)CC2)C1 [compound 421, 1-(trans-4-{[3-(2,2,2-Trifluoroethoxy)azetidin-1-yl]methyl}cyclohexyl)-7H-pyrrolo[3,2-e][1,2,3]triazolo[1,5-c]pyrimidine] | 0.01 | 0.17 | > 1 | > 1 |  |  |  |  | 
15 | CS(=O)(=O)c1ccc2c(c1)CCN2C[C@H]1CC[C@H](c2nnn3cnc4[nH]ccc4c23)CC1 [compound 189, 1-(trans-4-{[5-(methylsulfonyl)indolin-1-yl]methyl}cyclohexyl)-7H-pyrrolo[3,2-e][1,2,3]triazolo[1,5-c]pyrimidine] |  |  |  |  | 0.011 | 0.038 | 0.61 | 0.38 | 
16 | N#CCC(=O)N(CC(F)(F)F)C[C@H]1CC[C@H](c2nnn3cnc4[nH]ccc4c23)CC1 [compound 407, N-{[trans-4-(7H-Pyrrolo[3,2-e][1,2,3]triazolo[1,5-c]pyrimidin-1-yl)cyclohexyl]methyl}-2-cyano-N-(2,2,2-trifluoroethyl)acetamide] | 0.0034 | 0.0073 | 0.31 | 0.13 |  |  |  |  | 
17 | NC(=O)C1CCN(C[C@H]2CC[C@H](c3nnn4cnc5[nH]ccc5c34)CC2)CC1 [compound 261, 1-{[trans-4-(7H-pyrrolo[3,2-e][1,2,3]triazolo[1,5-c]pyrimidin-1-yl)cyclohexyl]methyl}piperidine-4-carboxamide] | 0.023 | 0.091 | > 1 | 0.64 |  |  |  |  | 
18 | FC(F)(F)C(F)(F)CN[C@H]1CC[C@H](c2nnn3cnc4[nH]ccc4c23)CC1 [383b, trans-N-(2,2,3,3,3-pentafluoropropyl)-4-(7H-pyrrolo[3,2-e][1,2,3]triazolo[1,5-c]pyrimidin-1-yl)cyclohexanamine] | 0.0015 | 0.013 | 0.5 | 0.17 |  |  |  |  | 
19 | O=C(NC1CC1)[C@H]1CC[C@H](c2nnn3cnc4[nH]ccc4c23)CC1 [compound 359, trans-N-cyclopropyl-4-(7H-pyrrolo[3,2-e][1,2,3]triazolo[1,5-c]pyrimidin-1-yl)cyclohexanecarboxamide] | 0.042 | 0.22 | > 1 | 0.56 |  |  |  |  | 
20 | O=S(=O)(C[C@H]1CC[C@H](c2nnn3cnc4[nH]ccc4c23)CC1)C(F)(F)F [compound 368, 1-(trans-4-{[(Trifluoromethyl)sulfonyl]methyl}cyclohexyl)-7H-pyrrolo[3,2-e][1,2,3]triazolo[1,5-c]pyrimidine] | 0.0013 | 0.0061 | 0.37 | 0.03 |  |  |  |  | 
21 | FCCNC[C@H]1CC[C@H](c2nnn3cnc4[nH]ccc4c23)CC1 [compound 107] |  |  |  |  | 0.0028 | 0.055 |  | 0.036 | 0.28

— patent US9216999B2, “Substituted pyrrolo[2,3-h][1,6]naphthyridines and compositions thereof as JAK inhibitors” (priority 2011, dated 2015)
